Laboratory results: US9421298B2, “Tissue adhesive based on nitrogen-modified aspartates” (Adhesys Medical GmbH, priority 2011, dated 2016)

Tested on: L929 cells
Assay: Cytotoxicity in accordance with ISO 10993-5:2009 with L929 cells
Type: cell-based
Conditions: prepolymer A cured with an equivalent amount of curing agent
Protocol: The prepolymer A was cured with an equivalent amount of 2. The cytotoxicity was measured in accordance with ISO 10993-5:2009 with L929 cells. […] The system can therefore not be classed as being cytotoxic.

SMILES: CCOC(=O)CC(NCCCCCCNCCCCCCNC(CC(=O)OCC)C(=O)OCC)C(=O)OCC (stereo not shown) [Curing agent 2, triethyl 4-oxo-3-oxa-7,14,21-triazatricosane-6,22,23-tricarboxylate]
- Cytotoxicity (cell viability): No reduction in cell viability
